{"source": "paper PMC11224556", "about": "“Next-generation of BBQ analogues that selectively target breast cancer” (Frontiers in Chemistry, 2024)", "key": {"[1]": {"test": "Solubility in the compound testing media", "format": "physicochemical"}, "AhR": {"molecular_target": "T1, AhR (Homo sapiens, UniProt P35869)", "T1 construct": "This cell line stably expresses the secreted Lucia luciferase reporter gene under the control of a minimal promoter; host or cells: HT29-Lucia AhR reporter cells", "T1 sequence (P35869 11-848)": "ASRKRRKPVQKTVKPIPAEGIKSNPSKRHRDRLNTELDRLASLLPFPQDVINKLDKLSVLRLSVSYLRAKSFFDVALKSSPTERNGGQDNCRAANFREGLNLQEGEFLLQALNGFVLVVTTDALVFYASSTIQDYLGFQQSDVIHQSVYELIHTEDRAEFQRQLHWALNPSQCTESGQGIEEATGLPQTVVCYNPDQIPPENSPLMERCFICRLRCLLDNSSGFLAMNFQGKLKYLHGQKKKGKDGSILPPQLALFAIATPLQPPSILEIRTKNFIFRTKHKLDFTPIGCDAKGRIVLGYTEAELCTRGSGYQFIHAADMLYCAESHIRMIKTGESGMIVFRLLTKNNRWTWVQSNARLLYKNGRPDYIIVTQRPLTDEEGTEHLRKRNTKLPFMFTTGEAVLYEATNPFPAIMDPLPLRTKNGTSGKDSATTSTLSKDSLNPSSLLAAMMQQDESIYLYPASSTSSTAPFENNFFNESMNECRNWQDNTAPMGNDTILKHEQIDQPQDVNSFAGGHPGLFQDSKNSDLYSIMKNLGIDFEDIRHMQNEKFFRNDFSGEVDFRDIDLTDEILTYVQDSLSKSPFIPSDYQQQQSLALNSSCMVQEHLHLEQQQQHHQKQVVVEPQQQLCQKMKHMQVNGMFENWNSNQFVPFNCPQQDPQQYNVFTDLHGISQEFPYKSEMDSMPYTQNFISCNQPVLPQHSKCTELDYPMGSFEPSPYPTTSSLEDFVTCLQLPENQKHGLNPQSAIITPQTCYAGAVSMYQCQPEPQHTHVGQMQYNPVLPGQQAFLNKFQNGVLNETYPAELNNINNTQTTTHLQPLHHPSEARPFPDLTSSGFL", "test": "AhR transcription reporter assay (HT29-Lucia AhR cells)", "format": "cell-based", "details": "24 h", "excerpt": "Our previous studies have shown that the activity of NAP-6 (2) and 10-Cl-BBQ (3) required the activation of the AhR pathway and the induction of CYP1 family of phase I metabolising enzymes ([Gilbert et al., 2020]; [Baker et al., 2021a]). Therefore, we sought to determine the activation of AhR using a stable AhR reporter assay in HT29-Lucia™ AhR cells, in the presence of each BBQ analogue (Figure 3). Activation of the AhR was indicated by enhanced luminescence caused by the translocation of the AhR to the nucleus of the cell and interaction with the xenobiotic response elements imbedded in the luciferase gene.\nStock solutions were prepared as follows and stored as 20 mM DMSO solutions at −20 °C. All cell lines were cultured in a humidified atmosphere 5% CO2 at 37 °C. The cancer cell lines were maintained in Dulbecco’s modified Eagle’s medium (DMEM) (Trace Biosciences, Australia) supplemented with 10% foetal bovine serum (FBS), 10 mM sodium bicarbonate, penicillin (100 IU/mL), streptomycin (100 μg/mL), and glutamine (4 mM). The non-cancer MCF10A cell line was cultured in DMEM:F12 (1:1) cell culture media, 5% heat inactivated horse serum, supplemented with penicillin (50 IU/mL), streptomycin (50 μg/mL), 20 mM Hepes, L-glutamine (2 mM), epidermal growth factor (20 ng/mL), hydrocortisone (500 ng/mL), cholera toxin (100 ng/mL), and insulin (10 μg/mL). The AhR reporter cell line HT29-Lucia™ (Invivogen, United States) was maintained in DMEM supplemented with 10% heat inactivated FBS, L-glutamine (2 mM), penicillin (100 IU/mL), streptomycin (100 μg/mL), 100 μg/mL Normocin™, and 100 μg/mL of the selective antibiotic Zeocin™. All cell lines were purchased from the American Type Culture Collection (ATCC), except for A2780 and A431 which were from the European Collection of Authenticated Cell Cultures (ECACC), and SJ-G2 cell line which was from Dr Mary Danks, St Jude Children’s Research hospital, Memphis, TN.\nThe activity of the AhR signalling pathway was measured using the stably transfected AhR cell line, HT29-Lucia™ (Invivogen, United States). This cell line stably expresses the secreted Lucia luciferase reporter gene under the control of a minimal promoter coupled with the human CYP1A1 gene entire regulatory sequence, containing six DREs. The Lucia luciferase reporter protein is readily measurable in the cell culture supernatant using QUANTI-Luc™. For the determination of AhR activity, 4 × 10^4 cells in 180 μL was plated into each well of a 96 well micro-titre plate in the absence of antibiotics and allowed to culture for 24 h prior to the addition of test compounds in a volume of 20 μL. At the indicated time, 20 μL of cell supernatant was transferred to a white luminometer plate and 50 µL of QUANTI-Luc was added immediately prior to reading the luminescence using a GloMax Explorer Luminescence Plate Reader. The promoter activity was conducted in duplicate and the values expressed as fold-change relative to DMSO (0.1%) treated cells. The AhR ligand, FICZ (6-formylindolo[3,2-b]carbazole) and AhR inhibitor CH223191 were included for study as positive and negative controls, respectively. […] Results are presented as the mean ± standard error of the mean (SEM) of analysis conducted in duplicate and repeated on three separate occasions."}, "[2]": {"tested_on": "MCF10A normal breast cells", "test": "MTT growth inhibition with CYP1 (αNF) or SULT1A1 (quercetin) inhibitor", "format": "cell-based, human", "details": "3 and 5 at 0.1 µM, αNF 10 µM, quercetin 5 µM, 72 h (Supp Figure 1)", "experimental": "This analysis confirms that both CYP1 and SULT1A1, activity is needed to induce the growth inhibitory effect of the BBQ analogue.\nCells in logarithmic growth were transferred to 96-well plates. Cytotoxicity was determined by plating cells in duplicate in 100 μL medium at a density of 2,500–4,000 cells/well in 96 well plates. On day 0, (24 h after plating) when the cells were in logarithmic growth 100 μL medium with or without the test agent was added to each well. After 72 h drug exposure growth inhibitory effects were evaluated using the MTT (3-[4,5-dimethylthiazol-2-yl]-2,5-diphenyltetrazolium bromide) assay with absorbance read at 540 nm. An eight-point dose response curve was produced, using MS Excel software. From these dose-response curves, the GI50 value was calculated, representing the drug concentration at which cell growth is 50% inhibited based on the difference between the optical density values on day 0 and those at the end of drug exposure ([Bradshaw et al., 2008]; [Zhang et al., 2009]). Each data point was conducted in duplicate and the mean ± S.E.M. calculated from four to five replicates (n = 4 or 5), which were performed on separate occasions and separate cell line passages. Where shown, significant test results were determined using T-test analysis at p < 0.01 and p < 0.05 with a two tail distribution.\nSupp Figure 1. CYP1 and SULT1A1 inhibition ameliorates the effect of 3 and 5. Growth inhibition (72 h, MTT assay) of 3 and 5 (0.1 µM) in the presence of the CYP1 family inhibitor, α-naphthoflavone (αNF, 10 µM) and SULT1A1 inhibitor, quercetin (qu, 5 µM) in (A) MDA-MB-468 breast cancer cells and (B) MCF10A normal breast cells. Significant differences are at the P < 0.01 ** level, using a paired T-test with a two-tailed distribution."}, "CYP1B1 mRNA": {"tested_on": "CYP1B1 mRNA", "test": "Gene expression analysis (qPCR) in MDA-MB-468 cells", "format": "cell-based, human", "details": "1.0 μM, 6 h", "experimental": "(§1) These analogues were specifically chosen because they were synthesised without the production of regioisomers, their structural differences are small while their biological differences are large, c.f. […] Neither analogue altered the expression of SULT1A1 (Figure 4D).\n(§2) Gene expression was examined in MDA-MB-468 cells following 6 h treatment. Total RNA was extracted using the RNeasy Mini Kit (Qiagen) according to the manufacturer’s instructions. One µg of RNA was reverse transcribed using the QuanitTect Reverse Transcription Kit (Qiagen) according to the manufacturer’s instructions. Rotor-Gene SYBR Green PCR Kit (Qiagen) was used to perform qPCR on a Rotor-Gene 3,000 Thermo-Cycler Instrument using β2-microglobulin as a housekeeping gene (Qiagen). The primer sequences were purchased from Qiagen as follows: AhR (QT02422938), CYP1A1 (QT00012341), CYP1B1 (QT00209496), SULT1A1 (QT01665489), and β2M (QT00088935). HotStar Taq activation (95 °C for 5 min) was followed by 40 cycles of denaturation (95 °C for 5 s), and annealing/extension (60 °C for 10 s). The comparative Ct value method was used for data analysis. Results are presented as the mean ± standard error of the mean (SEM) of analysis conducted in duplicate and repeated on two separate occasions. Significant test results were determined using T-test analysis at p < 0.01 with a two tail distribution."}, "CYP1A1 mRNA": {"tested_on": "CYP1A1 mRNA", "test": "Gene expression analysis (qPCR) in MDA-MB-468 cells", "format": "cell-based, human", "details": "1.0 μM, 6 h", "experimental": "as §1, §2"}, "[3]": {"tested_on": "broad panel of cancer cell lines and non-cancer breast cell line MCF10A", "details": "ref Gilbert et al., 2017; Gilbert et al., 2020; cited from earlier work"}}, "data": [{"molecule": "O=c1c2cccc3cccc(c32)c2nc3c(Cl)cc(Cl)cc3n12", "note": "[Compound 6, 10,12-Dichloro-7H-benzo[de]benzo[4,5]imidazo[2,1-a]isoquinolin-7-one]", "values": [{"measurement": "solubility in the compound testing media", "setting": "[1]", "result": "insoluble"}, {"measurement": "melting point", "result": "292 to 294", "unit": "°C"}]}, {"molecule": "Cc1ccccc1N=Nc1ccc(NC(=O)c2ccnn2C)c(C)c1", "note": "[CH223191, reference compound]", "values": [{"measurement": "AhR activation, Fold Reporter Induction", "setting": "AhR; 2.5 μM, negative control", "result": 0.7, "unit": "fold"}]}, {"molecule": "O=c1c(O)c(-c2ccc(O)c(O)c2)oc2cc(O)cc(O)c12", "note": "[quercetin, reference compound]", "values": [{"measurement": "effect on growth in normal MCF10A cells", "setting": "[2]", "result": "Neither 3, 5, αNF, or quercetin affected growth"}]}, {"molecule": "6-formylindolo[3,2-b]carbazole [FICZ, reference compound]", "values": [{"measurement": "AhR activation, Fold Reporter Induction", "setting": "AhR; 0.5 μM, positive control", "result": 2.7, "unit": "fold"}, {"measurement": "CYP1B1 Fold change (mRNA vs DMSO control)", "setting": "CYP1B1 mRNA", "result": 3.7, "unit": "fold"}, {"measurement": "CYP1A1 Fold change (mRNA vs DMSO control)", "setting": "CYP1A1 mRNA", "result": 19, "unit": "fold"}]}, {"molecule": "N#C/C(=C\\c1ccc[nH]1)c1ccc(Cl)c(Cl)c1", "note": "[Compound 1, (Z)-2-(3,4-dichlorophenyl)-3-(1H-pyrrol-2-yl)acrylonitrile]", "values": [{"measurement": "selective targeting of certain breast cancer cell lines compared with normal breast cells or other tumour types (fold)", "setting": "[3]", "result": "more than 500 fold"}]}, {"molecule": "O=c1cc(-c2ccccc2)oc2c1ccc1ccccc12", "note": "[α-naphthoflavone, reference compound]", "values": [{"measurement": "effect on growth in normal MCF10A cells", "setting": "[2]", "result": "Neither 3, 5, αNF, or quercetin affected growth"}]}]}
